Measurements taken from ChEMBL document CHEMBL1129158, “Marine sponge bis(indole) alkaloids that displace ligand binding to 1 adrenergic receptors” (Bioorg Med Chem Lett, 1996).

Tests used:
[1] = biological target: T1, Alpha-1A adrenergic receptor (Homo sapiens, UniProt P35348); test: Compound was tested for its binding affinity towards CHO cells expressing human Alpha-1a adrenergic receptor by displacing [125I]HEAT (2-beta-(4-hydroxyphenyl)-ethylaminomethyltetralone); assay type: cell-based
T1 sequence (P35348 whole entry): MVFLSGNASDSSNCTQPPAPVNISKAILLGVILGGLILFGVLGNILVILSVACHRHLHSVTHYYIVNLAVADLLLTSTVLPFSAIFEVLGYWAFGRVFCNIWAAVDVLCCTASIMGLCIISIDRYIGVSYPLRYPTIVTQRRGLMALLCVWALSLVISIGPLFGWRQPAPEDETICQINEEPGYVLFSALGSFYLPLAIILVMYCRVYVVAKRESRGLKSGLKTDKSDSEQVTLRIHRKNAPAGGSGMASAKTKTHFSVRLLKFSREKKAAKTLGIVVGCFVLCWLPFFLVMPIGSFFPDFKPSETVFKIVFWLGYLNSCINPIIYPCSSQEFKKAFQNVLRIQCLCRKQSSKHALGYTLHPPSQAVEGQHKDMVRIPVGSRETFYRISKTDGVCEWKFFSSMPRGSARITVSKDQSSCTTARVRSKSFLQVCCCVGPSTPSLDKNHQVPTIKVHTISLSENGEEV

[2] = biological target: Adrenergic receptors; alpha-1 A & B (Homo sapiens) (UniProt P35348+P35368); test: Selectivity is determined from the ratio of binding affinities of alpha 1a adrenoceptor to alpha 1b adrenoceptor; assay type: protein assay
[3] = biological target: T2, Alpha-1A adrenergic receptor (Rattus norvegicus, UniProt P43140); test: Binding affinity was determined against Alpha-1a adrenergic receptor
T2 sequence (P43140 whole entry): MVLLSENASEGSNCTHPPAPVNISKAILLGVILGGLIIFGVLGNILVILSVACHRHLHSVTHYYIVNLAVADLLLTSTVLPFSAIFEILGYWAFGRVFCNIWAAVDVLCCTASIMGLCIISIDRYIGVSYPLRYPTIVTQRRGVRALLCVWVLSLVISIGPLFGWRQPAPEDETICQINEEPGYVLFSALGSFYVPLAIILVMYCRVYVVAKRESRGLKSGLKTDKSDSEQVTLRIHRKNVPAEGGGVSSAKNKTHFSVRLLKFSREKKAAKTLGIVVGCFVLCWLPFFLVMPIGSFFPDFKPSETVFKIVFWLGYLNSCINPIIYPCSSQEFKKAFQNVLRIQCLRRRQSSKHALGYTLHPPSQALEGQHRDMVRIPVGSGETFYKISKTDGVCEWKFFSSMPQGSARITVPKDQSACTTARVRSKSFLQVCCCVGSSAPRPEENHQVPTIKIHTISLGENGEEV

[4] = biological target: T3, Alpha-1B adrenergic receptor (Homo sapiens, UniProt P35368); test: Binding affinity against human Alpha-1b adrenergic receptor
T3 sequence (P35368 whole entry): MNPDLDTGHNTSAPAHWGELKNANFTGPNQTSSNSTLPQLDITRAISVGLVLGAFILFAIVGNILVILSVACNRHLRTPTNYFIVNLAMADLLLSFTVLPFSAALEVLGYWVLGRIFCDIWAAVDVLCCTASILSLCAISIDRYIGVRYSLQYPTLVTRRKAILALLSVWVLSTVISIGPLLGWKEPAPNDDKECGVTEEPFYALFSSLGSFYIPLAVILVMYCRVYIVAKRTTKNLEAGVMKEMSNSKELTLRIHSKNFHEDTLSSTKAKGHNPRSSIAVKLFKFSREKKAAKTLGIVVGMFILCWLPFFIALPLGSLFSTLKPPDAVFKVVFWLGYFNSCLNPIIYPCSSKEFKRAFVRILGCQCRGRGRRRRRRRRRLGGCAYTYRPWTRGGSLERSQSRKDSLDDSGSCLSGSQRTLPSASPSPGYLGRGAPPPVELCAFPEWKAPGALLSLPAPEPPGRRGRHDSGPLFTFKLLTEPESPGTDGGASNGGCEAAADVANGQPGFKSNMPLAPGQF

[5] = biological target: Alpha-1B adrenergic receptor (Mesocricetus auratus, UniProt P18841); test: Compound was tested for its binding affinity towards Rat-1 cells stably expressing hamster alpha-1b adrenergic receptor by displacing [125I]HEAT (2-beta-(4-hydroxyphenyl)-ethylaminomethyltetralone); assay type: cell-based
Chain of Alpha-1B adrenergic receptor (Mesocricetus auratus, UniProt P18841) (P18841 whole entry, looked up): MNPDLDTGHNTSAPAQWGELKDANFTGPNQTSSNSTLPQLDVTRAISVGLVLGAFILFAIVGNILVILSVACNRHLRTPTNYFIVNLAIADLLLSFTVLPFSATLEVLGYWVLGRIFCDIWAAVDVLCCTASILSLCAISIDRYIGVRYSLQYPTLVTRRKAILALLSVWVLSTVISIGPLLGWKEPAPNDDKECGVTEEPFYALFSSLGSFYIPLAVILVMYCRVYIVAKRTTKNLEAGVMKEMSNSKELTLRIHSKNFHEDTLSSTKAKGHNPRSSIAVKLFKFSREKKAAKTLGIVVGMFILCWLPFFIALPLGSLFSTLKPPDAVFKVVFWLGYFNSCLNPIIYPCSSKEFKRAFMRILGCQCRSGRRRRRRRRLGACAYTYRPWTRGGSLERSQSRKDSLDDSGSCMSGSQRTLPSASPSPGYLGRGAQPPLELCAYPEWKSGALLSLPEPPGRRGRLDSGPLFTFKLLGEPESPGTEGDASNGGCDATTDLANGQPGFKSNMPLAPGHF

SMILES | Ki [1] [nM] | Selectivity [2] | Ki [3] [nM] | Ki [4] [nM] | Ki [5] [nM]
CN1C[C@H](c2c[nH]c3c(Br)c(Br)cc(O)c23)NC[C@H]1c1c[nH]c2cc(Br)ccc12 | 140 | 1.8 | 138 | 78 | –
O=C(c1nc(-c2c[nH]c3cc(Br)ccc23)c[nH]1)c1c[nH]c2cc(O)ccc12 [BROMOTOPSENTIN] | 12600 | 17 | – | – | –
O=C(c1nc(-c2c[nH]c3ccccc23)c[nH]1)c1c[nH]c2cc(O)ccc12 [TOPSENTIN] | – | 4.1 | – | – | 4740

More lines, now with the values ahead:

Ki [1] [nM] | Selectivity [2] | Ki [3] [nM] | Ki [4] [nM] | Ki [5] [nM] | SMILES
2140 | 4.1 | – | – | – | Brc1ccc2c(-c3c[nH]c(-c4c[nH]c5cc(Br)ccc45)n3)c[nH]c2c1 [NORTOPSENTIN A]
770 | 5.9 | – | – | – | Brc1ccc2c(-c3nc(-c4c[nH]c5ccccc45)c[nH]3)c[nH]c2c1 [NORTOPSENTIN B]
550 | 3.2 | – | – | – | Brc1ccc2c(-c3c[nH]c(-c4c[nH]c5ccccc45)n3)c[nH]c2c1 [NORTOPSENTIN C]
